Measurements reported in ChEMBL document CHEMBL3885881, “DrugMatrix”.

Species: Rattus norvegicus
Test: DrugMatrix - Regimen: Daily Repeat
Type: toxicity, organism-based, Sprague-Dawley
Design: regimen Daily Repeat, gender Male, age 6-8 weeks
Conditions: in vivo, po, route oral GAVAGE, vehicle .5 % CMC; for BASOPHIL / EOSINOPHIL / ERYTHROCYTE COUNT / HEMATOCRIT / HEMOGLOBIN / LEUKOCYTE COUNT / LYMPHOCYTE / MEAN CORPUSCULAR HEMOGLOBIN / MEAN CORPUSCULAR HEMOGLOBIN CONCENTRATION / MEAN CORPUSCULAR VOLUME / MONOCYTE / NEUTROPHIL / PLATELET COUNT: tissue Blood; for ALANINE AMINOTRANSFERASE / ALBUMIN / ALKALINE PHOSPHATASE / ASPARTATE AMINOTRANSFERASE / BLOOD UREA NITROGEN / CHLORIDE / CHOLESTEROL / CREATINE PHOSPHOKINASE / CREATININE / GLUCOSE / PHOSPHORUS / POTASSIUM / SODIUM / TOTAL BILIRUBIN / TOTAL PROTEIN: tissue Plasma
[1] = 0 mg/kg, 72 h, dose level Control, time 3 day
[2] = 0 mg/kg, 120 h, dose level Control, time 5 day
[3] = 10 mg/kg, 72 h, dose level Low, time 3 day
[4] = 10 mg/kg, 120 h, dose level Low, time 5 day
[5] = 1500 mg/kg, 72 h, dose level High, time 3 day
[6] = 1500 mg/kg, 120 h, dose level High, time 5 day

## COc1ccc(Cl)cc1C(=O)NCCc1ccc(S(=O)(=O)NC(=O)NC2CCCCC2)cc1 [GLYBURIDE]
[1]
  BASOPHIL: 0%
  EOSINOPHIL: 0%
  ERYTHROCYTE COUNT: 6.34 x10E6/uL
  HEMATOCRIT: 37.62%
  HEMOGLOBIN: 14.82 G/DL
  LEUKOCYTE COUNT: 11.18 x10E3/uL
  LYMPHOCYTE: 87.5%
  MEAN CORPUSCULAR HEMOGLOBIN: 23.48 pg
  MEAN CORPUSCULAR HEMOGLOBIN CONCENTRATION: 39.5 G/DL
  MEAN CORPUSCULAR VOLUME: 59.45 fL
  MONOCYTE: 1.67%
  NEUTROPHIL: 10.83%
  PLATELET COUNT: 1074.83 x10E3/uL
  ALANINE AMINOTRANSFERASE: 36.5 u/L
  ALBUMIN: 3.9 G/DL
  ALKALINE PHOSPHATASE: 370.17 u/L
  ASPARTATE AMINOTRANSFERASE: 63.17 u/L
  BLOOD UREA NITROGEN: 16.83 mg/dL
  CHLORIDE: 99.33 MEQ/L
  CHOLESTEROL: 64.33 mg/dL
  CREATINE PHOSPHOKINASE: 127 u/L
  CREATININE: 0.55 mg/dL
  GLUCOSE: 173.5 mg/dL
  PHOSPHORUS: 10.08 mg/dL
  POTASSIUM: 6.23 MEQ/L
  SODIUM: 143.5 MEQ/L
  TOTAL BILIRUBIN: 0.52 mg/dL
  TOTAL PROTEIN: 6.35 G/DL
[2]
  BASOPHIL: 0%
  EOSINOPHIL: 0.17%
  ERYTHROCYTE COUNT: 6.12 x10E6/uL
  HEMATOCRIT: 37.08%
  HEMOGLOBIN: 14.82 G/DL
  LEUKOCYTE COUNT: 11.87 x10E3/uL
  LYMPHOCYTE: 83.33%
  MEAN CORPUSCULAR HEMOGLOBIN: 24.25 pg
  MEAN CORPUSCULAR HEMOGLOBIN CONCENTRATION: 39.97 G/DL
  MEAN CORPUSCULAR VOLUME: 60.65 fL
  MONOCYTE: 1.5%
  NEUTROPHIL: 15%
  PLATELET COUNT: 1042.83 x10E3/uL
  ALANINE AMINOTRANSFERASE: 46 u/L
  ALBUMIN: 3.82 G/DL
  ALKALINE PHOSPHATASE: 369.5 u/L
  ASPARTATE AMINOTRANSFERASE: 65 u/L
  BLOOD UREA NITROGEN: 16.33 mg/dL
  CHLORIDE: 100.67 MEQ/L
  CHOLESTEROL: 57.17 mg/dL
  CREATINE PHOSPHOKINASE: 130 u/L
  CREATININE: 0.53 mg/dL
  GLUCOSE: 163.33 mg/dL
  PHOSPHORUS: 9.53 mg/dL
  POTASSIUM: 6.27 MEQ/L
  SODIUM: 144.83 MEQ/L
  TOTAL BILIRUBIN: 0.55 mg/dL
  TOTAL PROTEIN: 6.32 G/DL
[3]
  BASOPHIL: 0%
  EOSINOPHIL: 0.33%
  ERYTHROCYTE COUNT: 6.67 x10E6/uL
  HEMATOCRIT: 40.2%
  HEMOGLOBIN: 15.57 G/DL
  LEUKOCYTE COUNT: 12.13 x10E3/uL
  LYMPHOCYTE: 90.33%
  MEAN CORPUSCULAR HEMOGLOBIN: 23.33 pg
  MEAN CORPUSCULAR HEMOGLOBIN CONCENTRATION: 38.7 G/DL
  MEAN CORPUSCULAR VOLUME: 60.3 fL
  MONOCYTE: 1.33%
  NEUTROPHIL: 8%
  PLATELET COUNT: 1148 x10E3/uL
  ALANINE AMINOTRANSFERASE: 30.33 u/L
  ALBUMIN: 4.1 G/DL
  ALKALINE PHOSPHATASE: 317.67 u/L
  ASPARTATE AMINOTRANSFERASE: 61 u/L
  BLOOD UREA NITROGEN: 15 mg/dL
  CHLORIDE: 99.33 MEQ/L
  CHOLESTEROL: 66.33 mg/dL
  CREATINE PHOSPHOKINASE: 164.67 u/L
  CREATININE: 0.5 mg/dL
  GLUCOSE: 160.33 mg/dL
  PHOSPHORUS: 11.87 mg/dL
  POTASSIUM: 6.23 MEQ/L
  SODIUM: 144.67 MEQ/L
  TOTAL BILIRUBIN: 0.3 mg/dL
  TOTAL PROTEIN: 6.77 G/DL
[4]
  BASOPHIL: 0%
  EOSINOPHIL: 0%
  ERYTHROCYTE COUNT: 6.4 x10E6/uL
  HEMATOCRIT: 37.3%
  HEMOGLOBIN: 14.67 G/DL
  LEUKOCYTE COUNT: 11.77 x10E3/uL
  LYMPHOCYTE: 91.67%
  MEAN CORPUSCULAR HEMOGLOBIN: 22.97 pg
  MEAN CORPUSCULAR HEMOGLOBIN CONCENTRATION: 39.33 G/DL
  MEAN CORPUSCULAR VOLUME: 58.27 fL
  MONOCYTE: 0.67%
  NEUTROPHIL: 7.67%
  PLATELET COUNT: 1048 x10E3/uL
  ALANINE AMINOTRANSFERASE: 33 u/L
  ALBUMIN: 3.77 G/DL
  ALKALINE PHOSPHATASE: 328 u/L
  ASPARTATE AMINOTRANSFERASE: 52.33 u/L
  BLOOD UREA NITROGEN: 13.67 mg/dL
  CHLORIDE: 98.33 MEQ/L
  CHOLESTEROL: 53.33 mg/dL
  CREATINE PHOSPHOKINASE: 128.67 u/L
  CREATININE: 0.57 mg/dL
  GLUCOSE: 174 mg/dL
  PHOSPHORUS: 10.77 mg/dL
  POTASSIUM: 5.8 MEQ/L
  SODIUM: 144.33 MEQ/L
  TOTAL BILIRUBIN: 0.37 mg/dL
  TOTAL PROTEIN: 6.13 G/DL
[5]
  BASOPHIL: 0%
  EOSINOPHIL: 0%
  ERYTHROCYTE COUNT: 6.36 x10E6/uL
  HEMATOCRIT: 37.7%
  HEMOGLOBIN: 14.87 G/DL
  LEUKOCYTE COUNT: 13.87 x10E3/uL
  LYMPHOCYTE: 88.67%
  MEAN CORPUSCULAR HEMOGLOBIN: 23.43 pg
  MEAN CORPUSCULAR HEMOGLOBIN CONCENTRATION: 39.47 G/DL
  MEAN CORPUSCULAR VOLUME: 59.33 fL
  MONOCYTE: 1%
  NEUTROPHIL: 10.33%
  PLATELET COUNT: 1260.33 x10E3/uL
  ALANINE AMINOTRANSFERASE: 32 u/L
  ALBUMIN: 3.4 G/DL
  ALKALINE PHOSPHATASE: 223.33 u/L
  ASPARTATE AMINOTRANSFERASE: 50 u/L
  BLOOD UREA NITROGEN: 12 mg/dL
  CHLORIDE: 104.33 MEQ/L
  CHOLESTEROL: 52.67 mg/dL
  CREATINE PHOSPHOKINASE: 133.33 u/L
  CREATININE: 0.4 mg/dL
  GLUCOSE: 122.67 mg/dL
  PHOSPHORUS: 9.57 mg/dL
  POTASSIUM: 6.9 MEQ/L
  SODIUM: 150.33 MEQ/L
  TOTAL BILIRUBIN: 0.23 mg/dL
  TOTAL PROTEIN: 5.47 G/DL
[6]
  BASOPHIL: 0%
  EOSINOPHIL: 0%
  ERYTHROCYTE COUNT: 6.13 x10E6/uL
  HEMATOCRIT: 36.93%
  HEMOGLOBIN: 14.7 G/DL
  LEUKOCYTE COUNT: 14.7 x10E3/uL
  LYMPHOCYTE: 94.33%
  MEAN CORPUSCULAR HEMOGLOBIN: 24.03 pg
  MEAN CORPUSCULAR HEMOGLOBIN CONCENTRATION: 39.8 G/DL
  MEAN CORPUSCULAR VOLUME: 60.3 fL
  MONOCYTE: 0.67%
  NEUTROPHIL: 5%
  PLATELET COUNT: 1089.67 x10E3/uL
  ALANINE AMINOTRANSFERASE: 37 u/L
  ALBUMIN: 3.67 G/DL
  ALKALINE PHOSPHATASE: 297.33 u/L
  ASPARTATE AMINOTRANSFERASE: 58.33 u/L
  BLOOD UREA NITROGEN: 12.67 mg/dL
  CHLORIDE: 99.67 MEQ/L
  CHOLESTEROL: 63.33 mg/dL
  CREATINE PHOSPHOKINASE: 139.33 u/L
  CREATININE: 0.5 mg/dL
  GLUCOSE: 135 mg/dL
  PHOSPHORUS: 11.5 mg/dL
  POTASSIUM: 6.2 MEQ/L
  SODIUM: 145.33 MEQ/L
  TOTAL BILIRUBIN: 0.33 mg/dL
  TOTAL PROTEIN: 5.93 G/DL
